Data: patent publication US6784192B2, “Piperidine compound and pharmaceutical composition thereof” (Eisai Co., Ltd., priority 2000, dated 2004)
Counter-ions that a name gives are not always drawn. Like-named read-outs stand apart in the source and are kept apart here.

Experiments:
[1] = tested on: sodium channel of synaptosome of rat cerebral cortex; assay: Assessment for sodium channel of synaptosome of rat cerebral cortex (SBFI); assay type: cell-based
Experimental: In the present experiment the synaptosome which was extracted from rat cerebral cortex was used. After sodium ion-sensitive dye, SBFI was taken in, the synaptosome was reacted with the respective tested substances (3 samples in 6 concentrations) at room temperature for 15 minutes in a 96 wells plate. The sodium channel inhibitory activity was measured using FDSS2000 of HAMAMATSU Photonics Co., Ltd. The sodium ion concentration in the synaptosome was measured once per 5 seconds using the fluorescent intensity of SBFI as an index. After measuring the control value 10 times, Veratridine was added so that the final concentration was 20 μM, and further measurement was carried out 30times. The inhibitory activity value of the tested substances for sodium channel was calculated, setting the action only by a measurement solution without the tested substance, as 0%, and the inhibitory activity caused by 2 μM of TTX which was a positive control, as 100%, as an inhibitory activity value corresponding to this action, using the increase of the fluorescent intensity of SBFI to the control value which was generated after addition of Veratridine, as an index.

[2] = tested on: rabbit atrial muscle; assay: Assessment for rabbit atrial muscle, Vmax; settings: Test Example 4, right atrial muscle, stimulation frequency 4 Hz, 15 minutes
Experimental: The specimen of the right atrial muscle which was enucleated from rabbit was used for the present experiment. The electrical stimulation was applied for the right atrial muscle which was enucleated, under conditions: a stimulation duration of 1 mess; a stimulation frequency of 4 Hz; and a stimulation intensity of about 1.2-fold of the threshold. The stimulation was provided from 30 minutes to 60 minutes before start of the experiment, and the condition of the specimen was stabilized. The action potential was recorded according to a glass microelectrode method. 3 M KCl was charged in the glass electrode, inserted in the specimen of the right atrium, and the action potential was recorded. Vmax is the parameter of the maximum upstroke slope of the action potential recorded, and a value which was automatically calculated by an action potential analysis soft (CAPA 1.23 manufactured by Physiotec. Co., Ltd.) was used. After the action potential in a normal Tyrode solution was recorded as control, the action potential after flowing the tested substances at respective concentrations for 15 minutes was recorded. The action of the tested substance for Vmax was calculated as an IC50 value.

[3] = tested on: spontaneous nerve discharge of cut left saphenous nerve; assay: Suppression of spontaneous nerve discharge (ectopic firing); assay type: in vivo; settings: Test Example 5, rat, intravenous catheter, urethane anesthetized; for ED50: read-out: Ectopic Firing (ID50 mg/kg)
Experimental: In order to assess the suppression action for spontaneous nerve discharge, the experiment was carried out by a method below, referring to “Burchiel, K J., Exp. Nuerol., 102, 249-253 (1988)”. Namely, for the rat in which spontaneous discharge was observed, the left saphenous nerve was cut off nearby knee articulatio before 1 week or more, and around 3 mm of the nerve was cut off so that the nerve was not adhered again. The left saphenous nerve was exposed under urethane (1 g/kg body weight) anesthetized, and about 1 cm of adjacent portion from the cut portion was peeled from a periphery tissue. Further, a catheter was preliminarily inserted in the vein of a right neck for administration of a compound. The peeled nerve was mounted on a platinum hook electrode, and liquid paraffin was put on it so that the nerve was not dried. The electrode was connected with a fine electrode amplifier, and the value was recorded on a computer through an AD/converter from an oscilloscope. The nerve discharge recorded was assessed by the number of ignition per 10 seconds using an analysis soft (AcqKnowledge).

[4] = Test Example 3; Veratridine 20 μM; 2 μM TTX as 100%; read-out: SBFI (IC50 μM)
[5] = read-out: SBFI (IC50 μM); Test Example 3; Veratridine 20 μM; 2 μM TTX as 100%

| Compound | IC50 [1, 4] [µM] | IC50 [2] [µM] | Ectopic Firing (ID50 mg/kg) [3] [mg/kg] | IC50 [1, 5] [µM] | IC50 ([2]; Oryctolagus cuniculus, 0.25 h) [µM] | ED50 [3] [mg/kg] |
| --- | --- | --- | --- | --- | --- | --- |
| O=c1[nH]c2ccccc2cc1CN1CCC(CCc2cccc3c2OCO3)CC1 [Example 380, 1-[(2-Oxo-1,2-dihydro-3-quinolinyl)methyl]-4-[2-[2,3-(methylenedioxy)phenyl]ethyl]piperidine] | 3.9 | 8.6 | 0.1 | – | – | – |
| O=C(O)C(=O)O.O=c1[nH]cccc1CN1CCC(/C=C/c2ccccc2OCc2ccccc2)CC1 [Example 338, 1-[(2-Oxo-1,2-dihydro-3-pyridinyl)methyl]-4-[(E)-2-[2-(benzyloxy)phenyl]-1-ethenyl]piperidine oxalate] | – | – | – | 1.2 | 11.4 | 0.19 |
| O=c1[nH]cc(Cl)cc1CN1CCC(CCc2ccccc2OCC2CCCCC2)CC1 [Example 301, 1-[(5-Chloro-2-oxo-1,2-dihydro-3-pyridinyl)methyl]-4-[2-[2-(cyclohexylmethyloxy)phenyl]ethyl]piperidine] | – | – | – | 6.5 | 100 | 0.18 |
| O=c1[nH]cccc1CN1CCC(C=C(c2ccccc2)c2ccccc2)CC1 [Example 333, 1-[(2-Oxo-1,2-dihydro-3-pyridinyl)methyl]-4-(2,2-diphenyl-1-ethenyl)piperidine] | – | – | – | 5.4 | 4.9 | 0.15 |
| CC(C)COc1ccccc1CCC1CCN(Cc2cc(Cl)c[nH]c2=O)CC1.O=C(O)C(=O)O [Example 323, 1-[(5-Chloro-2-oxo-1,2-dihydro-3-pyridinyl)methyl]-4-[2-[2-(isobutyloxy)phenyl]ethyl]piperidine oxalate] | – | – | – | 4.8 | 3.9 | 0.083 |
| O=c1[nH]cc(Br)cc1CN1CCC(CCc2cccc3c2OCO3)CC1 [Example 291, 1-[(5-Bromo-2-oxo-1,2-dihydro-3-pyridinyl)methyl]-4-[2-[2,3-(methylenedioxy)phenyl]ethyl]piperidine] | 14.5 | 6 | 0.1 | – | – | – |
| O=c1[nH]cc(Cl)cc1CN1CCC(COc2cc(F)ccc2F)CC1 [Example 372, 1-[(5-Chloro-2-oxo-1,2-dihydro-3-pyridinyl)methyl]-4-[(2,5-difluorophenoxy)methyl]piperidine] | – | – | – | 21.8 | 9.3 | 0.11 |
| O=C(O)C(=O)O.O=c1[nH]cccc1CN1CCC(CCc2ccccc2OCC2CCCCC2)CC1 [Example 302, 1-[(2-Oxo-1,2-dihydro-3-pyridinyl)methyl]-4-[2-[2-(cyclohexylmethyloxy)phenyl]ethyl]piperidine oxalate] | – | – | – | 1.2 | 22.5 | 0.14 |
| O=c1[nH]c2ccccc2cc1CN1CCC(CCc2cccc(-c3ccccc3)c2)CC1 [Example 381, 1-[(2-Oxo-1,2-dihydro-3-quinolinyl)methyl]-4-[2-(3-(phenylphenyl)ethyl]piperidine oxalate] | – | – | – | 3 | 100 | 0.56 |
| O=C(O)C(=O)O.O=c1[nH]cccc1CN1CCC(CCc2ccccc2OC(F)(F)F)CC1 [Example 326, 1-[(2-Oxo-1,2-dihydro-3-pyridinyl)methyl]-4-[2-[2-(trifluoromethoxy)phenyl]ethyl]piperidine oxalate] | – | – | – | 1.9 | 3.98 | 0.18 |
| O=c1[nH]cc(Cl)cc1CN1CCC(CCc2ccccc2F)CC1 [Example 320] | – | – | – | 17 | 14.8 | 0.041 |
| O=c1[nH]cc(Cl)cc1CN1CCC(COc2ccc(F)cc2F)CC1 [Example 370, 1-[(5-Chloro-2-oxo-1,2-dihydro-3-pyridinyl)methyl]-4-[(2,4-difluorophenoxy)methyl]piperidine] | – | – | – | 33.6 | 45 | 0.081 |
| O=c1[nH]cc(Cl)cc1CN1CCC(CCc2cccc3c2OCO3)CC1 [Example 319] | – | – | – | 10.2 | 10 | 0.082 |
| O=c1[nH]cccc1CN1CCC(COc2ccccc2Cl)CC1 [Example 376, 1-[(2-Oxo-1,2-dihydro-3-pyridinyl)methyl]-4-[(2-chlorophenoxy)methyl]piperidine] | – | – | – | 20.3 | – | 0.07 |
| O=C(O)C(=O)O.O=c1[nH]cccc1CN1CCC(CCc2ccccc2OCC2CCCC2)CC1 [Example 311, 1-[(2-Oxo-1,2-dihydro-3-pyridinyl)methyl]-4-[2-[2-(cyclopentylmethyloxy)phenyl]ethyl]piperidine oxalate] | – | – | – | 0.7 | 2 | 0.13 |
| O=C(O)C(=O)O.O=c1[nH]cccc1CN1CCC(CCc2ccccc2OCCc2ccccc2)CC1 [Example 309, 1-[(2-Oxo-1,2-dihydro-3-pyridinyl)methyl]-4-[2-[2-(2-phenylethoxy)phenyl]ethyl]piperidine oxalate] | – | – | – | 1 | 6.3 | 0.19 |
| Cl.Cl.O=c1[nH]cccc1CN1CCC(CCc2ccccc2NCc2ccccc2)CC1 [Example 313, 1-[(2-Oxo-1,2-dihydro-3-pyridinyl)methyl]-4-[2-[2-(benzylamino)phenyl]ethyl]piperidine dihydrochloride] | – | – | – | 1.5 | 8.6 | 0.16 |
| Cc1ccccc1CCC1CCN(Cc2ccc[nH]c2=O)CC1 [Example 285, 1-[(2-Oxo-1,2-dihydro-3-pyridinyl)methyl]-4-[2-(2-methylphenyl)ethyl]piperidine] | – | – | – | 7.7 | 2.9 | 0.13 |
| CC(C)COc1ccccc1CCC1CCN(Cc2ccc[nH]c2=O)CC1.O=C(O)C(=O)O [Example 308, 1-[(2-Oxo-1,2-dihydro-3-pyridinyl)methyl]-4-[2-[2-(isobutyloxy)phenyl]ethyl]piperidine oxalate] | – | – | – | 0.5 | 3.1 | 0.22 |
| O=c1[nH]cc(Cl)cc1CN1CCC(CCc2ccccc2OCc2ccccc2)CC1 [Example 299] | – | – | – | 5.3 | 50 | 0.1 |
| O=C(O)C(=O)O.O=c1[nH]cccc1CN1CCC(CCc2ccccc2CCc2ccccc2)CC1 [Example 306, 1-[(2-Oxo-1,2-dihydro-3-pyridinyl)methyl]-4-[[2-(2-phenylethyl)phenyl]ethyl]piperidine oxalate] | – | – | – | 1.3 | 1.9 | 0.17 |
